Experimental data published in publication PMC9596378, “Discovery and molecular basis of subtype-selective cyclophilin inhibitors” (Nature Chemical Biology, 2022).
Read-outs that look alike come from different tables or passages of the source.

Tests used:
Cyp40 = Cyp40 (Homo sapiens, UniProt Q08752); test: Chymotrypsin coupled prolyl-isomerase assay; conditions: Wild-Type Cyclophilin Prolyl Isomerase Inhibition IC50 Values, Cyp40, wild-type Cyp40
Method in brief: (§1)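 Chymotrypsin-coupled cis–trans isomerization of Suc-AAPF-AMC (5 µM) catalysed by 5 nM cyclophilin, run cold (2–3 °C) at pH 7.3 with 5 min compound preincubation.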

NKTR = molecular target: T1, NKTR (Homo sapiens, UniProt P30414); test: Chymotrypsin coupled prolyl-isomerase assay; assay type: biochemical
T1 construct: NKTR (UniProtKB Entry P30414: residues 7–179); host or cells: E. coli BL21(DE3)
T1 sequence (P30414 7-179): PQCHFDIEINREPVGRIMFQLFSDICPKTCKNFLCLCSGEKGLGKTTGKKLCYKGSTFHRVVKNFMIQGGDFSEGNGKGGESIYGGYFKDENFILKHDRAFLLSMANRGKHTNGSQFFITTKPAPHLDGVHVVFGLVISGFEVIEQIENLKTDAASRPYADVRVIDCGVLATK

CypB = molecular target: T2, CypB (Homo sapiens, UniProt P23284); test: biochemical; conditions: wild-type CypB; read-out: Wild-Type Cyclophilin Prolyl Isomerase Inhibition IC50 Values, CypB
T2 construct: PPIB (UniProtKB Entry P23284: residues 34–216); His6 with TEV site (2BT vector leader) (N); made in house; host or cells: E. coli BL21(DE3)
Method in brief: as §1

CypG = molecular target: T3, CypG (Homo sapiens, UniProt Q13427); test: Chymotrypsin coupled prolyl-isomerase assay; assay type: biochemical; conditions: wild-type CypG; read-out: Wild-Type Cyclophilin Prolyl Isomerase Inhibition IC50 Values, CypG
T3 construct: PPIG (UniProtKB Entry Q13427: residues 1–179); His6 with thrombin site (pET28a LIC leader) (N); host or cells: E. coli BL21(DE3)
T3 sequence (Q13427 1-179): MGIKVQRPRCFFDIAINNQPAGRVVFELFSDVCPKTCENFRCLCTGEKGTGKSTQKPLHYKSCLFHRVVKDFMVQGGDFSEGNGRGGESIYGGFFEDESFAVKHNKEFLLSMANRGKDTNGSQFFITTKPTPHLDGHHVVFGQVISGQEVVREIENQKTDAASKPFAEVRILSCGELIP
Method in brief: as §1

CypC = molecular target: T4, CypC (Homo sapiens, UniProt P45877); test: Chymotrypsin coupled prolyl-isomerase assay; assay type: biochemical; conditions: wild-type CypC; read-out: Wild-Type Cyclophilin Prolyl Isomerase Inhibition IC50 Values, CypC
T4 construct: PPIC (UniProtKB Entry P45877: residues 24–212); host or cells: E. coli BL21(DE3)
Method in brief: as §1

CypE = molecular target: T5, CypE (Homo sapiens, UniProt Q9UNP9); test: Chymotrypsin coupled prolyl-isomerase assay; assay type: biochemical; conditions: wild-type CypE; read-out: Wild-Type Cyclophilin Prolyl Isomerase Inhibition IC50 Values, CypE
T5 construct: PPIE (UniProtKB Entry Q9UNP9: residues 131–301); host or cells: E. coli BL21(DE3)
Method in brief: as §1

CypA = molecular target: T6, CypA (Homo sapiens, UniProt P62937); test: Chymotrypsin coupled prolyl-isomerase assay; assay type: biochemical
T6 construct: PPIA (UniProtKB Entry P62937: residues 1–165); made in house; host or cells: E. coli BL21(DE3)
Method in brief: as §1

CypH = molecular target: T7, CypH (Homo sapiens, UniProt O43447); test: Chymotrypsin coupled prolyl-isomerase assay; assay type: biochemical
T7 construct: PPIH (UniProtKB Entry O43447: residues 1–177); His6 with TEV site (2BT vector leader) (N); made in house; host or cells: E. coli BL21(DE3)
Method in brief: as §1

T6 sequence (P62937 whole entry, the tested form may be a part): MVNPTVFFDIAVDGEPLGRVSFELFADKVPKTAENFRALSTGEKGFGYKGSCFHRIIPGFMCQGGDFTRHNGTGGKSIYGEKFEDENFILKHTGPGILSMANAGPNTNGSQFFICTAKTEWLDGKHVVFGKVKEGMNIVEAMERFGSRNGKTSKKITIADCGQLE
T7 sequence (O43447 whole entry, the tested form may be a part): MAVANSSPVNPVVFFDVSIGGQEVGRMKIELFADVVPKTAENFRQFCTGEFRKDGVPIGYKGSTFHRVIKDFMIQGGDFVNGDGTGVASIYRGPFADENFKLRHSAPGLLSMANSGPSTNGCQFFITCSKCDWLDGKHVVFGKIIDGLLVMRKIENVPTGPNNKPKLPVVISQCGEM
T2 sequence (P23284 34-216): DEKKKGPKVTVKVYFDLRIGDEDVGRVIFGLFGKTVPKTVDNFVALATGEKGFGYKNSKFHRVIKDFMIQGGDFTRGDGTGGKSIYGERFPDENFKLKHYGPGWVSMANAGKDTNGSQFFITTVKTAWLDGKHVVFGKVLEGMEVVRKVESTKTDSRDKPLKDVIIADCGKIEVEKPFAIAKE
Sequence of Cyp40 (Q08752 1-183): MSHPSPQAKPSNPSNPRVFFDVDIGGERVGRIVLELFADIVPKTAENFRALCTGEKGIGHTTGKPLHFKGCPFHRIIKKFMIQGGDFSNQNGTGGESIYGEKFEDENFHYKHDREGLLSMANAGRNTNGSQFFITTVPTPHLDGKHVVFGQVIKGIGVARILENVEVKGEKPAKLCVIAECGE
T4 sequence (P45877 24-212): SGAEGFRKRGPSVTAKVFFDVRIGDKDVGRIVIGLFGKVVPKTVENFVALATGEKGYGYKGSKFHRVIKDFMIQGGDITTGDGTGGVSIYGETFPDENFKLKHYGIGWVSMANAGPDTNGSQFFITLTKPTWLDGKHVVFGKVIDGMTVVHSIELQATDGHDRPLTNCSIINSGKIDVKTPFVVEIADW
T5 sequence (Q9UNP9 131-301): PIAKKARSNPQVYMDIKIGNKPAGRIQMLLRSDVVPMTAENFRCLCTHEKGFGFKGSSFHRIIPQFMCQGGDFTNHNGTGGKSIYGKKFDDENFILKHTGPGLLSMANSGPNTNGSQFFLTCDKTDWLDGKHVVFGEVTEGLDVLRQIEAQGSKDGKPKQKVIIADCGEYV

With `NCCOCCNC(=O)C1CCNC(=O)C=CC(=O)N2CCCC(C2)C(=O)NC(Cc2ccco2)C(=O)NCc2ccccc2CC(=O)N1` (centres unmarked) [JOMBt] the IC50 (Cyp40) was 19 µM, the IC50 (NKTR; prolyl-isomerase inhibition, 5 nM cyclophilin, read-out: IC50 NKTR) was roughly 60 µM and the IC50 (NKTR; wild-type NKTR, read-out: Wild-Type Cyclophilin Prolyl Isomerase Inhibition IC50 Values, NKTR) was 60 µM. For the same compound, the IC50 (CypB) was 5 µM, the IC50 (CypG) was 16 µM and the IC50 (CypC) was 23 µM. The IC50 (CypE) was 23 µM, the IC50 (CypA; prolyl-isomerase inhibition, 5 nM cyclophilin, read-out: IC50 CypA) was roughly 60 µM and the IC50 (CypA; wild-type CypA, read-out: Wild-Type Cyclophilin Prolyl Isomerase Inhibition IC50 Values, CypA) was 60 µM. The IC50 (CypH; prolyl-isomerase inhibition, 5 nM cyclophilin, read-out: IC50 CypH) was roughly 100 µM and the IC50 (CypH; wild-type CypH, read-out: Wild-Type Cyclophilin Prolyl Isomerase Inhibition IC50 Values, CypH) was 100 µM.
